Among the data in PubChem BioAssay AID493099 (Broad Institute, 2011) are activity change, negative = toxicity and AC50 values, retold here.

The source made the active and inactive calls. The rule behind the calls is not given here.

The nature of one test: PubChem AID 493099. The conditions noted are these: NIH-3T3 viability with fluconazole, Alamar Blue, 48 h.
Test [1] deals with NIH-3T3 viability with fluconazole, Alamar Blue, 48 h. The test is described as follows: PubChem AID 493099.

With `O=C(O)c1nn(Cc2ccc(Cl)cc2)c2ccccc12`, in the test “PubChem AID 493099” (at 26 µM (top of the series)), the activity change, negative = toxicity is -9.65% (inactive). For `Cc1nn(S(C)(=O)=O)c2ccccc12`, the activity change, negative = toxicity in “PubChem AID 493099” (at 26 µM (top of the series)) is -23.9% (inactive). The same measure, in the same setting: for `COc1cccnc1N1CCN(C(=O)c2ccc(Cl)cc2)CC1` the value was -12.3% (inactive); for `Cc1cccc(N2CCN(C(=O)c3ccc(Cl)cc3)CC2)n1`, -19.6% (inactive). Turning to `CC1CCN(C(=O)Cn2c3ccccc3c3nc4n(c(=O)c32)CCCS4)CC1`, the activity change, negative = toxicity in the test “PubChem AID 493099” (at 26 µM (top of the series)) is -25.8% (inactive).

In the case of `CNC(=O)Cn1nc(-c2ccccc2)c2ccccc21`, in the test “PubChem AID 493099” (at 26 µM (top of the series)), the activity change, negative = toxicity was -11.1% (inactive). Same read-out and setting: under `O=C(Cn1nc(-c2ccccc2)c2ccccc21)N1CCc2ccccc2C1` stands -10.2% (inactive); under `COC(=O)Cn1c(-c2ccccc2)nc2ccccc21`, -4.41% (inactive).

As to `O=C(c1cccc(Cl)c1)N1CCN(c2ccccn2)CC1`, in the test “PubChem AID 493099” (at 26 µM (top of the series)), the activity change, negative = toxicity is -24.6% (inactive). Same read-out and setting: under `COC(=O)Cn1nc(-c2ccc(Cl)cc2)c2ccccc21` stands -11% (inactive). On to `O=C(Cn1c2ccccc2c2nc3n(c(=O)c21)CCS3)N1CCCC1`, for which the activity change, negative = toxicity in “PubChem AID 493099” (at 26 µM (top of the series)) is -17.5% (inactive). Moreover, the AC50 in test [1] is 19.7 µM. In the case of `CCN(CC)C(=O)Cn1c2ccccc2c2nc3n(c(=O)c21)CCS3`, in the test “PubChem AID 493099” (at 26 µM (top of the series)), the activity change, negative = toxicity is -27% (inactive). In addition, in test [1], the AC50 is > 26 µM (inactive). Take `Cc1ccnc(N2CCN(C(=O)c3ccc(Cl)cc3)CC2)c1`: the activity change, negative = toxicity in the test “PubChem AID 493099” (at 26 µM (top of the series)) is -11.8% (inactive).

On to `COc1ccc(NC(=O)Cn2c3ccccc3c3nc4n(c(=O)c32)CCS4)cc1`, for which the half-maximal activity concentration (AC50) in test [1] was 6.04 µM. As to `N#Cc1ccc(C(=O)N2CCN(c3ccccn3)CC2)cc1`, the activity change, negative = toxicity in “PubChem AID 493099” (at 26 µM (top of the series)) was 4.67% (inactive).

As for `O=C(c1ccccc1Cl)N1CCN(c2ccccn2)CC1`, in the test “PubChem AID 493099” (at 26 µM (top of the series)), the activity change, negative = toxicity was -7.93% (inactive).

Turning to `Cc1ccc(N2CCN(C(=O)c3ccc(Cl)cc3)CC2)nc1`, the AC50 in test [1] is > 26 µM (inactive). Same read-out and setting: under `O=C(Cn1nc(-c2ccccc2)c2cc(Cl)ccc21)N1CCOCC1` stands > 26 µM (inactive).

Take `O=C(Cn1c2ccc(F)cc2c2nc3n(c(=O)c21)CCS3)N1CCCC1`: the activity change, negative = toxicity in the test “PubChem AID 493099” (at 26 µM (top of the series)) is -34% (inactive). The same measure, in the same setting: for `O=C(c1ccc(Cl)cc1)N1CCN(c2nc3ccccc3s2)CC1` the value was -24% (inactive); for `O=C(c1ccc(Cl)cc1)N1CCN(c2ccc(C(F)(F)F)cn2)CC1`, -6.38% (inactive). For `COC(=O)Cn1nc(-c2ccccc2)c2ccccc21`, the activity change, negative = toxicity in “PubChem AID 493099” (at 26 µM (top of the series)) was -16.9% (inactive). On the same count and under the same terms, for `N#Cc1ccc(N2CCN(C(=O)c3ccc(Cl)cc3)CC2)nc1` the value was -15.6% (inactive); for `COCCC(=O)N1CCN(c2ccccn2)CC1`, -16% (inactive); for `CCOC(=O)c1nn(Cc2ccc(Cl)cc2)c2ccccc12`, -28.4% (inactive). With `CC(C)C(=O)N1CCN(c2ccccn2)CC1`, the activity change, negative = toxicity in “PubChem AID 493099” (at 26 µM (top of the series)) is 7.76% (inactive). Still for that read-out and setting: under `O=c1c2[nH]c3ccccc3c2nc2n1CCS2` stands -21.3% (inactive); under `COC(=O)Cn1nc(C)c2ccccc21`, -5.29% (inactive); under `O=C(Cn1c2ccccc2c2nc3n(c(=O)c21)CCS3)NCCc1ccc(Cl)cc1`, -7.62% (inactive). The same measure, in the same setting: for `COC(=O)Cn1nc(-c2ccccc2)c2cc(Cl)ccc21` the value was -7.62% (inactive); for `O=C(Cn1c2ccccc2c2nc3n(c(=O)c21)CCCS3)c1ccc(F)cc1`, -8.47% (inactive); for `CC1CCN(C(=O)Cn2c3ccccc3c3nc4n(c(=O)c32)CCS4)CC1`, -20.3% (inactive). The same measure, in the same setting: for `COc1ccc(C(=O)N2CCN(c3ccccn3)CC2)cc1` the value was -22.2% (inactive). Take `O=C(Cn1c2ccc(F)cc2c2nc3n(c(=O)c21)CCS3)N1CCCCCC1`: in “PubChem AID 493099” (at 26 µM (top of the series)), the activity change, negative = toxicity was -19.1% (inactive). Take `COc1ccc2c(c1)c1nc3n(c(=O)c1n2CC(=O)N1CCC(C)CC1)CCS3`: in the test “PubChem AID 493099” (at 2.6 µM (top of the series)), the activity change, negative = toxicity was 18.1% (inactive). `CC1CCN(C(=O)Cn2c3ccc(F)cc3c3nc4n(c(=O)c32)CCCS4)CC1`: the activity change, negative = toxicity in the test “PubChem AID 493099” (at 26 µM (top of the series)) was -15.8% (inactive). As to `CCCCC(=O)N1CCN(c2ccccn2)CC1`, in the test “PubChem AID 493099” (at 26 µM (top of the series)), the activity change, negative = toxicity was -7.03% (inactive).

Take `O=C(O)c1c2ccccc2nn1Cc1ccc(Cl)cc1`: the activity change, negative = toxicity in “PubChem AID 493099” (at 26 µM (top of the series)) was -7.54% (inactive). Still for that read-out and setting: under `O=C(Cn1nc(C(=O)N2CCCCC2)c2ccccc21)N1CCOCC1` stands -2.32% (inactive); under `CCOC(=O)c1c2ccccc2nn1Cc1ccc(Cl)cc1`, 3.93% (inactive); under `c1ccc(-c2n[nH]c3ccccc23)cc1`, -5.62% (inactive).

In the case of `O=C(c1ccc(Cl)cc1)N1CCN(c2ncccc2C(F)(F)F)CC1`, the activity change, negative = toxicity in the test “PubChem AID 493099” (at 26 µM (top of the series)) is -21.5% (inactive).

In the case of `O=C(Cn1c2ccccc2c2ccncc21)N1CCCCC1`, the activity change, negative = toxicity in the test “PubChem AID 493099” (at 26 µM (top of the series)) was -31.2% (inactive). On to `Cc1ccc(C(=O)N2CCN(c3ccccn3)CC2)cc1`, for which the activity change, negative = toxicity in the test “PubChem AID 493099” (at 26 µM (top of the series)) is 5.98% (inactive). On the same count and under the same terms, under `CCCNC(=O)Cn1nc(-c2ccccc2)c2ccccc21` stands -5.82% (inactive); under `CCCNC(=O)Cn1nc(-c2ccccc2)c2cc(Cl)ccc21`, -7.48% (inactive); under `O=c1c2[nH]c3ccc(F)cc3c2nc2n1CCS2`, 7.11% (inactive).

With `O=C(O)Cn1nc(-c2ccccc2)c2ccccc21`, in the test “PubChem AID 493099” (at 26 µM (top of the series)), the activity change, negative = toxicity was -27.1% (inactive). For `O=C(C1CCCCC1)N1CCN(c2ccccn2)CC1`, the activity change, negative = toxicity in the test “PubChem AID 493099” (at 26 µM (top of the series)) is -19.3% (inactive). On to `COc1ccc2c(c1)c1nc3n(c(=O)c1n2CC(=O)N1CCC(Cc2ccccc2)CC1)CCS3`, for which the activity change, negative = toxicity in the test “PubChem AID 493099” (at 26 µM (top of the series)) is -12% (inactive). Take `N#Cc1cccnc1N1CCN(C(=O)c2ccc(Cl)cc2)CC1`: the activity change, negative = toxicity in “PubChem AID 493099” (at 26 µM (top of the series)) is 6.33% (inactive). As for `COC(=O)Cn1nc(-c2ccc(C)cc2)c2ccccc21`, in the test “PubChem AID 493099” (at 26 µM (top of the series)), the activity change, negative = toxicity was 0.677% (inactive).
